Legend:
[1] = earlier experimentation
Method: Thus, sodium bicarbonate was added to a prototype formulation primarily to control rapid pH elevation and calcium carbonate for a more sustained control of elevated pH.

[2] = pH of dissolution vessel with calcium carbonate antacid tablets in HCl; assay type: physicochemical; conditions: in 10 minutes (FIG. 1)
Method: Two dissolution vessels were prepared: one vessel contained 25 mEq of HCl and a single commercially available calcium carbonate antacid tablet (Tums®), and the other vessel contained 25 mEq of HCl and five calcium carbonate antacid tablets. […] Calcium carbonate has shown a capability as a pH modifier and pH dependent solubility.

Compound	time to raise acid media from pH 1 to pH 6 [1]	pH change seen for calcium carbonate [2]
O=C([O-])O.[Na+] [sodium bicarbonate]	less than 2 minutes	
O=C([O-])[O-].[Ca+2] [calcium carbonate]		5

From US10441657B2, “Methods and compositions for self-regulated release of active pharmaceutical ingredient” (Acura Pharmaceuticals, Inc., priority 2012, dated 2019)
